Reference: patent US12036267B2 (BICT S.R.L., priority 2017, dated 2024)

Key:
[1] = tested on: S. aureus; assay: Antimicrobial activity (MIC / FIC index) of extracts and nisin; type: cell-based; details: nisin alone
Method: (§1) The antimicrobial activity of the composition according to the invention has been assessed in relation to gram-positive and gram-negative bacteria, as well as fungi and yeast, by means of in vitro susceptibility testing with the antimicrobial dilution method (CLSI protocols—Clinical and Laboratory Standards Institute), as a result of which the MIC (Minimum Inhibitory Concentration) was determined for each of the microorganisms in question.
(§2) For all the tests carried out, a positive control for the antimicrobial activity was carried out by using fluconazole (for fungi and yeasts) and ceftriaxone (for bacterial strains) and a negative control (no compounds) in which the correct microbial growth was assessed.
(§3) The FIC index is determined using the following formula:
(§4) FIC Index>1=> no synergistic effect
(§5) In this example, the antimicrobial activity of the individual natural extracts was first assessed as follows:
(§6) The antimicrobial activity of the individual natural extracts was then assessed in association with the composition according to the invention in Example 8:
(§7) The interaction of the composition in Example 8 with other natural antimicrobial peptides, such as nisin, was assessed.
(§8) After determining the antimicrobial activity of nisin alone, the antimicrobial activity of nisin was assessed in association with the composition according to the invention: […]

[2] = tested on: E. coli; assay: as above; type: cell-based; details: nisin alone
Method: as §1, §2, §3, §4, §5, §6, §7, §8

## nisin
[1]
  MIC: S. aureus - 17 UI/ml
[2]
  MIC: E. coli - 18750 UI/ml
